From US20250368623A1, “PYRIDAZINONE-DERIVED COMPOUNDS FOR THE MODULATION OF MYC AND FOR MEDICAL USES” (GENETIC INTELLIGENCE, INC, priority 2022, published 2025)
pIC50: −log10 of the molar value.

How the values were obtained:
[1] = test system: caspase 3/7 activation in HepG2; assay: ApoTox-Glo Triplex assay, caspase 3/7 activation in HepG2; format: cell-based, human; conditions: vs DMSO
Description: The effects of test compounds on cell viability and apoptosis are determined using the ApoTox-Glo Triplex assay kit (Promega G6320) according to the following protocol. The human cancer cell line (e.g., HepG2) and a non-cancer human cell line (e.g., HEK-293), are seeded at 20,000 cells per well in a 96-well plate. After 1 day, the cells are treated with test compounds at various final concentrations (e.g., 10 nM, 31.6 nM, 100 nM, 316 nM, 1 μM, 3.16 μM, 10 μM, 20 μM, etc.). After a 2-day incubation period, the ApoTox-Glo Triplex assay is performed according to the kit manufacturer's protocol. In brief, 20 μL of viability/cytotoxicity reagent containing both GF-AFC substrate (cell-permeant substrate to measure live-cell protease activity) and bis-AAF-R110 substrate (cell-impermeant substrate to measure dead-cell protease activity) is added to each sample, and briefly mixed by orbital shaking (300-500 rpm for ˜30 seconds). After incubation for 30 minutes at 37° C., the fluorescence signal is measured at two wavelength sets (400Ex/505Em) and (485Ex/520Em) to assess live-cell protease activity and dead-cell protease activity respectively. Following the measurement of the live-cell and dead-cell protease activities, 25 μl of Caspase-Glo 3/7 Reagent containing a luminogenic DEVD-peptide substrate for caspase-3/7 and thermostable luciferase is added to each sample, and briefly mixed by orbital shaking (1300-1500 rpm for ˜30 seconds). After incubation for 30 minutes at room temperature, the luminescent signal is measured using a microplate reader. The luminescent signal directly correlates with caspase-3/7 activity, which is a key indicator of apoptosis.
The fold-change of caspase 3/7 activation is calculated by dividing the luminescence signal of the compound-treated sample with that of the no-compound, solvent only (DMSO)-treated sample.

HepG2 [2] = assay: CellTiter-Glo 2.0 cell viability assay, HepG2; format: cell-based; conditions: Homo sapiens, 48 h; CellTiter-Glo 2.0, HepG2, 2-day incubation
Description: The effect of test compounds on cell viability is also determined using the CellTiter-Glo 2.0 assay kit (Promega G9241) according to the following protocol. The human cancer cell line (e.g., HepG2) and a non-cancer human cell line (e.g., HEK-293), are seeded at 20,000 cells per well in a 96-well plate. After 1 day, the cells are treated with test compounds at various concentrations (e.g., 10 nM, 31.6 nM, 100 nM, 316 nM, 1 μM, 3.16 μM, 10 μM, 20 μM, etc.). After a 2-day incubation period, the CellTiter-Glo 2.0 assay is performed according to the kit manufacturer's protocol. […] The contents are mixed for 2 minutes on an orbital shaker to induce cell lysis, and incubated for 10 minutes at room temperature, following which the luminescent signal is measured using a microplate reader. […] The cytotoxic effect of test compounds at different concentrations is calculated by subtracting from 1 the ratio of the luminescence signal of the compound-treated sample to that of the no-compound, solvent only (DMSO)-treated sample. […] The IC50 values for the cytotoxic effect of each test compound in HepG2 cells are determined by plotting a dose-response curve to calculate the concentration of test compound that produces half of the maximum cytotoxic effect. […]

HEK-293 = assay: ApoTox-Glo Triplex assay (live-dead ratio), HEK-293; format: cell-based; conditions: Homo sapiens, HEK293, 48 h, HEK-293, 2-day incubation
Description: (§2) The effects of test compounds on cell viability and apoptosis are determined using the ApoTox-Glo Triplex assay kit (Promega G6320) according to the following protocol. The human cancer cell line (e.g., HepG2) and a non-cancer human cell line (e.g., HEK-293), are seeded at 20,000 cells per well in a 96-well plate. After 1 day, the cells are treated with test compounds at various final concentrations (e.g., 10 nM, 31.6 nM, 100 nM, 316 nM, 1 μM, 3.16 μM, 10 μM, 20 μM, etc.). After a 2-day incubation period, the ApoTox-Glo Triplex assay is performed according to the kit manufacturer's protocol. […] After incubation for 30 minutes at 37° C., the fluorescence signal is measured at two wavelength sets (400Ex/505Em) and (485Ex/520Em) to assess live-cell protease activity and dead-cell protease activity respectively. […] After incubation for 30 minutes at room temperature, the luminescent signal is measured using a microplate reader. […]
(§3) The cytotoxic effect of test compounds according to the ApoTox-Glo Triplex assay is calculated as follows. The live-dead ratio is calculated by dividing the fluorescence signal for live-cell protease activity with the fluorescence signal for dead-cell protease activity. […]

JeKo-1 = assay: CCK-8 cell viability assay, JeKo-1; format: cell-based; conditions: Homo sapiens; CCK-8, JeKo-1, 2-day or 3-day incubation, cytotoxic effect
Description: (§1) The effect of test compounds on cell viability is determined using the CCK-8 assay kit (Dojindo CK04-1000) according to the following protocol. The human cancer cell lines (e.g., A549, HepG2, JeKo-1, MDA-MB-231, etc.) and non-cancer human cell lines (e.g., HEK-293, HaCaT, etc.), are seeded at 20,000 cells per well in a 96-well plate. After 1 day, the cells are treated with test compounds at various final concentrations (e.g., 10 nM, 31.6 nM, 100 nM, 316 nM, 1 μM, 3.16 μM, 10 μM, 20 μM, etc.). After a 2-day or 3-day incubation period, 10 μL of CCK-8 solution, which contains the WST-8 dye, is added to each well according to the kit manufacturer's protocol. After incubation for 1-4 hours, the absorbance at 450 nm is measured using a microplate reader. The absorbance at 450 nm measures the amount of WST-8 that is reduced to WST-8 formazan by cellular dehydrogenases, which is directly proportional to the number of living cells. The cytotoxic effect of test compounds at different concentrations is calculated by subtracting from 1 the ratio of absorbance of the compound-treated sample at 450 nm to that of the no-compound, solvent only (DMSO)-treated sample. A higher number indicates a greater cytotoxic effect of the test compound on cells (corresponding to a greater reduction in cellular dehydrogenase activity), and vice versa. The IC50 values for the cytotoxic effect of each test compound in A549, HepG2, JeKo-1, and/or MDA-MB-231 cells are determined by plotting a dose-response curve to calculate the concentration of test compound that produces half of the maximum cytotoxic effect. The cytotoxic effect and IC50 of test compounds are also measured in a non-cancer human cell line (e.g., HEK-293, and/or HaCaT) as a proxy for healthy cells to determine the therapeutic window of the test compounds (i.e., the concentration range at which the test compounds selectively kill cancer cells but not healthy cells). The therapeutic index of a test compound is defined herein as its IC50 in HEK-293 cells divided by its IC50 in HepG2 cells.

HepG2 [3] = assay: ApoTox-Glo Triplex assay (live-dead ratio), HepG2; format: cell-based; conditions: Homo sapiens, 48 h, HepG2, 2-day incubation
Description: as §2, §3

MYC protein [4] = assay: MYC HTRF assay, MYC protein level in human cell lines; format: cell-based; conditions: about 20 μM, 2-day incubation, human cell lines (e.g., A549, HepG2), vs DMSO-treated sample
Description: The MYC homogenous time-resolved fluorescence (HTRF) assay kit (CisBio/Perkin Elmer 63ADK053PEG) is used to quantify the level of MYC protein in human cell lines (e.g., A549, HepG2) following treatment with test compounds, according to the following protocol. Human cells cultured in DMEM-10% FBS media are seeded at 20,000 cells per well in a 96-well plate. After 1 day, the cells are treated with test compounds at a final concentration of about 20 μM. After a 2-day incubation period, the supernatant is removed from the wells and the HTRF assay is carried out according to the kit manufacturer's protocol. In brief, lysis buffer #4 is added to create cell lysates. 10 μL of cell lysate is added to 10 μL of premixed antibody solution (anti-human My c-Eu cryptate antibody and anti-human Myc-d2 antibody) prepared in detection buffer #3 in a 384-well low-volume white-walled plated. After 3 h of incubation, fluorescence readings are taken at the emission wavelengths of donor and acceptor fluorophores (620 nm and 665 nm respectively) using a HTRF-compatible plate reader. The ratio of acceptor and donor fluorescence emission signals for each sample is calculated by dividing the fluorescence signal at 665 nm by the signal at 620 nm, and further normalized by dividing with the concentration of total protein in that sample as determined by the BCA assay. The values so obtained are presented as a percentage of that of the no-compound, solvent only (DMSO)-treated samples. A lower percentage of MYC protein in a sample with respect to the DMSO-treated sample indicates greater percentage reduction in MYC protein level due to the test compound, and vice versa.

MDA-MB-231 = assay: CCK-8 cell viability assay, MDA-MB-231; format: cell-based; conditions: Homo sapiens; CCK-8, MDA-MB-231, 2-day or 3-day incubation, cytotoxic effect
Description: as §1

MYC protein [5] = assay: Western blot of MYC protein in human cancer cell lines; format: cell-based; conditions: about 1 μM, 2-day incubation, e.g., A549 or HepG2, GAPDH loading control, vs DMSO
Description: The level of reduction of MYC protein following treatment with test compounds is also assessed by Western blot according to the following protocol. The human cancer cell lines (e.g., A549 or HepG2) are seeded at 20,000 cells per well in a 96-well plate. After 1 day, the cells are treated with test compounds at a final concentration of about 1 μM. After a 2-day incubation period, the supernatant is removed from the wells and RIPA buffer is added to create cell lysates. The lysates are analyzed by Western blot and probed with a MYC-specific antibody (e.g., Proteintech 10828-1-AP) together with a GAPDH-specific antibody (e.g., Proteintech 10494-1-AP) to serve as loading control. The intensities of Western blot bands are quantified by FIJI (Image J). The relative expression value of MYC following treatment with a test compound is calculated by dividing the intensity of the MYC band of the sample with the intensity of its own GAPDH band. The value so obtained is presented as a percentage of that of the no-compound, solvent only (DMSO)-treated sample. A lower percentage of MYC protein in a sample with respect to the DMSO-treated sample indicates greater percentage reduction in MYC protein level due to the test compound, and vice versa.

A549 = assay: CCK-8 cell viability assay, A549; format: cell-based; conditions: Homo sapiens; CCK-8, A549, 2-day or 3-day incubation, cytotoxic effect
Description: The effect of test compounds on cell viability is determined using the CCK-8 assay kit (Dojindo CK04-1000) according to the following protocol. The human cancer cell lines (e.g., A549, HepG2, JeKo-1, MDA-MB-231, etc.) and non-cancer human cell lines (e.g., HEK-293, HaCaT, etc.), are seeded at 20,000 cells per well in a 96-well plate. After 1 day, the cells are treated with test compounds at various final concentrations (e.g., 10 nM, 31.6 nM, 100 nM, 316 nM, 1 μM, 3.16 μM, 10 μM, 20 μM, etc.). After a 2-day or 3-day incubation period, 10 μL of CCK-8 solution, which contains the WST-8 dye, is added to each well according to the kit manufacturer's protocol. After incubation for 1-4 hours, the absorbance at 450 nm is measured using a microplate reader. The absorbance at 450 nm measures the amount of WST-8 that is reduced to WST-8 formazan by cellular dehydrogenases, which is directly proportional to the number of living cells. The cytotoxic effect of test compounds at different concentrations is calculated by subtracting from 1 the ratio of absorbance of the compound-treated sample at 450 nm to that of the no-compound, solvent only (DMSO)-treated sample. […]

Cc1nc(C)c(-c2ccc(=O)n(CC3CCN(c4ncnc5ncccc45)CC3)n2)s1 [6-(2,4-dimethylthiazol-5-yl)-2-((1-(pyrido[2,3-d]pyrimidin-4-yl)piperidin-4-yl)methyl)pyridazin-3(2H)-one]
Fold-change of caspase 3/7 activation ([1]; HepG2, compound concentration 10 nM): 1.245
Fold-change of caspase 3/7 activation ([1]; HepG2, compound concentration 31.6 nM): 1.204
Fold-change of caspase 3/7 activation ([1]; HepG2, compound concentration 100 nM): 0.853
Fold-change of caspase 3/7 activation ([1]; HepG2, compound concentration 316 nM): 0.586
Fold-change of caspase 3/7 activation ([1]; HepG2, compound concentration 1000 nM): 0.420
Fold-change of caspase 3/7 activation ([1]; HepG2, compound concentration 3160 nM): 0.371
Fold-change of caspase 3/7 activation ([1]; HepG2, compound concentration 10000 nM): 0.308
Fold-change of caspase 3/7 activation ([1]; HepG2, compound concentration 20000 nM): 0.280
pIC50 (HepG2 [2]): 7.00
pIC50 (HEK-293): 4.44
pIC50 (JeKo-1): 6.40
pIC50 (HepG2 [3]): 7.00
% reduction of MYC protein (MYC protein [4]): 72%
pIC50 (MDA-MB-231): 6.10
% reduction of MYC protein (MYC protein [5]): 67%
pIC50 (A549): 5.89
